Measured values as given in patent publication US9629822B2, “Flavonoid based antiviral targets” (UNIVERSITY OF CENTRAL FLORIDA RESEARCH FOUNDATION, INC., priority 2012, dated 2017).
Read-outs that look alike come from different tables or passages of the source.

Assays:
[1] = target: T1, US28 receptor (Human cytomegalovirus, UniProt P69332); assay: PathDetect trans Elk1 luciferase reporter gene assay in US28-transfected 293T HEK cells; type: cell-based, Human Cytomegalovirus (HCMV); conditions: for EC50: 293T HEK cells transiently expressing US28, Elk1 reporter, NE = no effect when tested at 10 μM of compound; for type of activity on the US28 receptor (agonist / inverse agonist / none), in words: Elk1 reporter, US28-transfected HEK cells; for Efficacy(%): maximum intrinsic activity from dose-response curve; for Efficacy(%) / Emax: negative = inverse agonism; for Emax: read-out: Efficacy(%), maximum intrinsic activity from dose-response curve
T1 construct: expressed in transfected cells; host or cells: HEK 293T cells, transiently transfected
T1 sequence (P69332 whole entry): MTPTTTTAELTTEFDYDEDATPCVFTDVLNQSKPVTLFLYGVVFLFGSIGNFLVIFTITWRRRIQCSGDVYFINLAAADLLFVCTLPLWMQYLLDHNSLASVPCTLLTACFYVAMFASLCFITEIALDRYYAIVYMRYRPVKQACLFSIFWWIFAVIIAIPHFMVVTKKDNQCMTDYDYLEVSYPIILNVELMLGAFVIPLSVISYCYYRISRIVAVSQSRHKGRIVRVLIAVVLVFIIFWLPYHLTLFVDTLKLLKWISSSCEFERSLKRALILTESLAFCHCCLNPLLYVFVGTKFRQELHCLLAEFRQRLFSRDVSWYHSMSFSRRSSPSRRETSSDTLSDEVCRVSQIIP
Procedure, shortened: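 HEK293T cells transiently transfected with Elk1, Luc and US28 vector (empty pcDNA3 for mock) were dosed with compounds in DMEM/1% FBS with 1% DMSO for 20-24 h at 37° C. Bright-Glo luminescence decrease was read; EC50 is halfway between maximal response and no-compound control, by non-linear regression.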

[2] = test system: mock transfected 293T HEK cells; assay: PathDetect Elk1 luminescence in mock transfected (empty pcDNA3 vector) 293T HEK cells, off-target effect; type: cell-based, human; conditions: 10 μM vs 1% DMSO control, Equation 1; for activation at 10 µM: Homo sapiens, read-out: Effect(%) on mock cells with each drug at 10 μM
Protocol: As a control, the empty pcDNA3 plasmid vector and the components of PathDetect system were also used for mock transfection of 293T HEK cells. Controls containing 1% DMSO were run in parallel. The relative luminescence results found with mock transfected 293T HEK cells treated with 10 μM drug and the untreated 1% DMSO control were compared via the following Equation 1. % Effect on mock cells=(100%×(mock cell luminescence/DMSO control luminescence))−100% Equation (1)
This equation was derived in order to assess the net effect each compound had on non-US28 containing HEK cells transfected via the same protocol. These control experiments were critical as they provided a method to address off target effects such as compound toxicity, which could give rise to false positives in the PathDetect assay.
Compounds, which had no off-target effects, gave nearly identical luminescence values in both the mock cells and the 1% DMSO control (i.e., a mock cell luminescence/DMSO control luminescence ratio of 1) and a net effect of 0% via Equation 1 (e.g., 9j: 0% in Table 1). In contrast, compounds that were stimulatory to the treated HEK cells gave higher mock cell luminescence than the DMSO control, a ratio >1, and a net positive value in Equation 1 for the % effect on mock cells (e.g., 8f: 290%). On the other hand, compounds that were intrinsically toxic gave lower luminescence in the treated mock cells than the DMSO control, a ratio below 1, and a net negative value for the % effect on mock cells (e.g., 8d: ˜42%).
The efficacy of each compound on the US28 receptor was investigated in luciferase based reporter gene assay PathDetect trans Elk1 (Agilent, Stratagene)^23 as described previously.^13 Briefly, the human embryonic kidney (HEK) 293T cells were transiently-transfected with 0.1 μg Elk1, 5 μg Luc, and 5 μg of US28 vector or empty pcDNA3 vector (mock cells). Five hours after transfection, the cells were washed with DMEM containing 1% FBS, harvested, seeded in a white half-area 96-well plate (20,000 cells/well) and incubated with the indicated concentrations of test compounds. The incubation buffer consisted of DMEM, 1% FBS, 2 mM L-glutamine, 1% penicillin-streptomycin and 1% DMSO. The cells were incubated at 37° C. in the humid atmosphere with 5% CO2 for an additional 20-24 hours. The luciferase substrate BrightGlo (Promega) was used according to the manufacturer's instruction. The luminescence intensity was acquired using microplate reader Victor3V (Perkin-Elmer). The basal luminescence of mock transfected cells was approximately 500 RLU and the basal luminescence of US28-transfected cells was 4-5-fold higher (2000-2500 RLU). As the inhibitors gave differential responses in terms of their ability to reduce US 28 mediated signaling, their relative EC50 values were determined by dosing the US-28 transfected HEK cells with increasing concentrations of each compound. In this case, the EC50 value is the concentration of the compound needed to provoke a response halfway between the compound's maximal response (change in luminescence) and the no-compound control in the same US-28 transfected cell line. A plot of relative luminescence versus log of the compound concentration provided a dose-response curve from which the % efficacy was derived via non-linear regression methods using the algorithms in PRISM 5.0 (GraphPad Software, San Diego, Calif.).

[3] = test system: CHO cells; assay: CHO cell toxicity, MTS assay, 48 h; type: cell-based, Chinese hamster; conditions: Cricetulus griseus, CHO, 37° C., MTS reagent, read-out: CHO 48 h IC50 value
Procedure, shortened: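 CHO cells plated at 10,000 cells/mL, incubated overnight, then exposed to drug (final DMSO <1%) for 48 h at 37 °C, 5% CO2, in triplicate. MTS added for a further 4 h; absorbance read at 490 nm. IC50 taken from relative A490 versus drug concentration.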

[4] = TZMbI assay for cell safety (cell viability and growth, CytoTox Glo); conditions: human, TZMbI cells, read-out: % decrease in viability compared to 0.1% DMSO vehicle based on viable cell luminescence
Protocol: Assays were performed below in accordance with the procedures set forth in The Journal of Immunology, 2006, 176, pp. 6900-905; AIDS Research and Human Retroviruses, 2004, 20:11, pp. 1157-1665.^32,33 TZMbI assays for cell safety were performed to identify potential anti-viral compounds. TZMbI assays for cell safety were performed to identify potential anti-viral compounds per the methods.

[5] = test system: HIV-1 BaL; assay: Anti-HIV assay (luciferase, HIV-1 BaL infection); type: cell-based
Procedure, shortened: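 Cells infected with HIV-1 BaL at 2 ng/mL p24 (MOI approx 0.02) in compound presence. Infection read out by luciferase.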

[6] = 10 μM, Experiment 1B, 2 ng/mL p24 HIV-1 BaL
[7] = Human immunodeficiency virus 1, BAL, 10 μM, Experiment 1B, 2 ng/mL p24 HIV-1 BaL

COc1ccc(Cl)cc1C1CC(=O)c2ccccc2O1 (stereo not shown) [Compound 13h, 2-(5-Chloro-2-methoxyphenyl)chroman-4-one]
melting point: 51 to 60 °C | EC50 [1]: > 10 µM | EC50 ([1]; EC50 (μM)): > 10 µM | type of activity on the US28 receptor (agonist / inverse agonist / none), in words [1]: did not have any significant effect | activation at 10 µM [2]: -14%

CCOc1ccc(Cl)cc1/C=C/C(=O)c1ccccc1O [Compound 8i, (E)-3-(5-chloro-2-ethoxyphenyl)-1-(2-hydroxyphenyl)prop-2-en-1-one]
IC50 [3]: 6.8 ± 0.9 µM | melting point: 61 to 65 °C | cytotoxicity at 10 μM ([4]; Experiment 1A): 87.1% | RLU (relative luciferase units) [5, 6]: 130.4 RLU | inhibition at 10 µM [5, 7]: 86.2% | EC50 ([1]; EC50 (μM)): 6.4 µM | Efficacy(%) [1]: ~76% | Emax [1]: ~76% | Effect(%) on mock cells with each drug at 10 μM [2]: 33% | activation at 10 µM [2]: 33%

COc1ccc(I)cc1-c1oc2ccccc2c(=O)c1O [Compound 9g, 3-Hydroxy-2-(5-iodo-2-methoxyphenyl)-4H-chromen-4-one]
IC50 [3]: 17.9 ± 1.6 µM | melting point: 153 to 159 °C | cytotoxicity at 10 μM ([4]; Experiment 1A): 15.3% | RLU (relative luciferase units) [5, 6]: 358.6 RLU | inhibition at 10 µM [5, 7]: 61.7% | EC50 [1]: > 10 µM | activation at 10 µM [2]: -23%

COc1ccc(C)cc1/C=C/C(=O)c1ccccc1O [Compound 8j, (E)-1-(2-hydroxyphenyl)-3-(2-methoxy-5-methylphenyl)prop-2-en-1-one]
IC50 [3]: 14.2 ± 2.7 µM | melting point: 69 to 72 °C | cytotoxicity at 10 μM ([4]; Experiment 1A): 47% | RLU (relative luciferase units) [5, 6]: 345.7 RLU | inhibition at 10 µM [5, 7]: 63.1% | type of activity on the US28 receptor (agonist / inverse agonist / none), in words [1]: agonist activity | Emax at 10 µM ([1]; read-out: Efficacy(%), 10 μM single concentration): 52% | activation at 10 µM [2]: -4%

COc1cc(OC)c(/C=C/C(=O)c2ccccc2O)cc1Br [Compound 8e, (E)-3-(5-bromo-2,4-dimethoxyphenyl)-1-(2-hydroxyphenyl)prop-2-en-1-one]
IC50 [3]: 16.9 ± 1.3 µM | melting point: 153 to 157 °C | cytotoxicity at 10 μM ([4]; Experiment 1A): 4.1% | RLU (relative luciferase units) [5, 6]: 671.4 RLU | inhibition at 10 µM [5, 7]: 29% | EC50 ([1]; EC50 (μM)): 4.9 µM | Emax [1]: ~55% | activation at 10 µM [2]: 5%

COc1ccc(C)cc1-c1oc2ccccc2c(=O)c1O [Compound 9j, 3-hydroxy-2-(2-methoxy-5-methylphenyl)-4H-chromen-4-one]
IC50 [3]: 54.6 ± 4.2 µM | melting point: 158 to 164 °C | cytotoxicity at 10 μM ([4]; Experiment 1A): 4.8% | RLU (relative luciferase units) [5, 6]: 814.0 RLU | inhibition at 10 µM [5, 7]: 13% | EC50 ([1]; EC50 (μM)): 1.78 µM | type of activity on the US28 receptor (agonist / inverse agonist / none), in words [1]: inhibited US28 receptor constitutive activity | Emax [1]: -38% | Effect(%) on mock cells with each drug at 10 μM [2]: 0% | activation at 10 µM [2]: 0%

COc1cc(Br)cc(-c2oc3ccccc3c(=O)c2O)c1OC [Compound 9d, 2-(5-Bromo-2,3-dimethoxyphenyl)-3-hydroxy-4H-chromen-4-one]
IC50 [3]: > 100 µM | melting point: 153 to 158 °C | cytotoxicity at 5 μM ([4]; 5 μM, Experiment 2A): -7.87% | cytotoxicity at 10 μM ([4]; Experiment 1A): -7.3% | cytotoxicity at 10 μM ([4]; Experiment 2A): -18.6% | cytotoxicity at 20 μM ([4]; 20 μM, Experiment 2A): -23.7% | cytotoxicity at 40 μM ([4]; 40 μM, Experiment 2A): -33.1% | cytotoxicity at 80 μM ([4]; 80 μM, Experiment 2A): -8.38% | RLU (relative luciferase units) ([5]; 5 μM, Experiment 2B): 10.04 RLU | RLU (relative luciferase units) [5, 6]: 452.5 RLU | RLU (relative luciferase units) ([5]; 10 μM, Experiment 2B): 25.14 RLU | RLU (relative luciferase units) ([5]; 20 μM, Experiment 2B): 41.25 RLU | RLU (relative luciferase units) ([5]; 40 μM, Experiment 2B): 68.82 RLU | RLU (relative luciferase units) ([5]; 80 μM, Experiment 2B): 59.85 RLU | inhibition at 5 µM ([5]; Human immunodeficiency virus 1, BAL, 5 μM, Experiment 2B): -7.87% | inhibition at 10 µM [5, 7]: 51.7% | inhibition at 10 µM ([5]; Human immunodeficiency virus 1, BAL, 10 μM, Experiment 2B): -18.6% | inhibition at 20 µM ([5]; Human immunodeficiency virus 1, BAL, 20 μM, Experiment 2B): -23.7% | inhibition at 40 µM ([5]; Human immunodeficiency virus 1, BAL, 40 μM, Experiment 2B): -33.1% | inhibition at 80 µM ([5]; Human immunodeficiency virus 1, BAL, 80 μM, Experiment 2B): -8.38% | EC50 [1]: > 10 µM

COc1ccc(I)cc1/C=C/C(=O)c1ccccc1O [Compound 8g, (E)-1-(2-hydroxyphenyl)-3-(5-iodo-2-methoxyphenyl)prop-2-en-1-one]
IC50 [3]: 6.7 ± 0.7 µM | melting point: 107 to 109 °C | cytotoxicity at 10 μM ([4]; Experiment 1A): 99.7% | RLU (relative luciferase units) [5, 6]: 3.3 RLU | inhibition at 10 µM [5, 7]: 99.6% | EC50 ([1]; EC50 (μM)): 5.5 µM | Efficacy(%) [1]: ~94% | Emax [1]: ~94% | Effect(%) on mock cells with each drug at 10 μM [2]: 100% | activation at 10 µM [2]: 100%
